This note sets out measurements from US11364248B2 (AMGEN INC., priority 2017, dated 2022).

This assay concerns OPM-2. The assay is described as follows: Cell Viability Assay (OPM-2 10 FBS). Format: cell-based, human. The conditions noted are these: OPM-2 cells, 16 h, CellTiter-Glo, read-out: OPM-2 10% FBS IC50 IP. As to the method: Cell Viability Assay (OPM-2 10 FBS)
The human multiple myeloma cell line, OPM-2, was cultured in complete growth medium containing RPMI 1640 and 10% fetal bovine serum (FBS). Cells were seeded into 384-well plates at 3000 cells/well density in complete growth medium containing 10% FBS, and incubated for 16 h with serially diluted test compounds in a 37° C. incubator with 5% CO2. Cell viability was tested using CellTiter-Glo® assay (Promega, Madison, Wis.) according to the manufacturer recommendations. Luminescence was determined using an EnVision® Multilabel plate reader 25 min after the addition of detection reagent. IC50 values were then calculated with Xlfit using a logistical 4-parameter fit model in GraphPad Prism (GraphPad Software, San Diego, Calif.) or in Genedata Screener® (Genedata, Basel, Switzerland).
`COC1CN([C@H]2CO[C@@H]([C@H]3CCC[C@H](C)[C@@H](C)S(=O)(=O)NC(=O)c4ccc5c(c4)N(C[C@@H]4CC[C@H]43)C[C@@]3(CCCc4cc(Cl)ccc43)CO5)OC2)C1` [Example 52, (1S,3′R,6′R,7′S,11′S,12′R)-6-chloro-7′-(cis-5-(3-methoxy-1-azetidinyl)-1,3-dioxan-2-yl)-11′,12′-dimethyl-3,4-dihydro-2H,15′H-spiro[naphthalene-1,22′-[20]oxa[13]thia[1,14]diazatetracyclo [14.7.2.0~3,6~.0~19,24~]pentacosa[16,18,24]trien]-15′-one 13′,13′-dioxide]: the IC50 was 59 nM.
Turning to `C[C@@H]1[C@@H](C)CCC[C@H]([C@H]2OC[C@@H](N3CCC3)CO2)[C@@H]2CC[C@H]2CN2C[C@@]3(CCCc4cc(Cl)ccc43)COc3ccc(cc32)C(=O)NS1(=O)=O` [Example 20, (1S,3′R,6′R,7′S,11′S,12′R)-7′-(cis-5-(1-azetidinyl)-1,3-dioxan-2-yl)-6-chloro-11′,12′-dimethyl-3,4-dihydro-2H,15′H-spiro[naphthalene-1,22′-[20]oxa[13]thia[1,14]diazatetracyclo [14.7.2.0~3,6~.0~19,24~]pentacosa[16,18,24]trien]-15′-one 13′,13′-dioxide], the 50% inhibitory concentration (IC50) was 41 nM.
With `C[C@@H]1[C@@H](C)CCC[C@H]([C@H]2OC[C@@H](N3CC(F)(F)C3)CO2)[C@@H]2CC[C@H]2CN2C[C@@]3(CCCc4cc(Cl)ccc43)COc3ccc(cc32)C(=O)NS1(=O)=O` [Example 31, (1S,3′R,6′R,7′S,11′S,12′R)-6-chloro-7′-(cis-5-(3,3-difluoro-1-azetidinyl)-1,3-dioxan-2-yl)-11′,12′-dimethyl-3,4-dihydro-2H,15′H-spiro[naphthalene-1,22′-[20]oxa[13]thia[1,14]diazatetracyclo [14.7.2.0~3,6~.0~19,24~]pentacosa[16,18,24]trien]-15′-one 13′,13′-dioxide], the IC50 came to 204 nM.
To `CCN(CC)[C@H]1CO[C@@H]([C@H]2CCC[C@H](C)[C@@H](C)S(=O)(=O)NC(=O)c3ccc4c(c3)N(C[C@@H]3CC[C@H]32)C[C@@]2(CCCc3cc(Cl)ccc32)CO4)OC1` [Example 57, (1S,3′R,6′R,7′S,11′S,12′R)-6-chloro-7′-(cis-5-(diethylamino)-1,3-dioxan-2-yl)-11′,12′-dimethyl-3,4-dihydro-2H,15′H-spiro[naphthalene-1,22′-[20]oxa[13]thia[1,14]diazatetracyclo [14.7.2.0~3,6~.0~19,24~]pentacosa[16,18,24]trien]-15′-one 13′,13′-dioxide] belongs 164 nM.
The value for `COC[C@@H]1[C@@H](C)CCC[C@H]([C@H]2OC[C@@H](N(C)C)CO2)[C@@H]2CC[C@H]2CN2C[C@@]3(CCCc4cc(Cl)ccc43)COc3ccc(cc32)C(=O)NS1(=O)=O` [Example 92, (1S,3′R,6′R,7′S,11′S,12′S)-6-chloro-7′-(cis-5-(dimethylamino)-1,3-dioxan-2-yl)-12′-(methoxymethyl)-11′-methyl-3,4-dihydro-2H,15′H-spiro[naphthalene-1,22′-[20]oxa[13]thia[1,14]diazatetracyclo [14.7.2.0~3,6~.0~19,24~]pentacosa[16,18,24]trien]-15′-one 13′,13′-dioxide] was 988 nM.
With `C[C@@H]1[C@@H](C)CCC[C@H]([C@H]2OC[C@@H](N3CC(N(C)C)C3)CO2)[C@@H]2CC[C@H]2CN2C[C@@]3(CCCc4cc(Cl)ccc43)COc3ccc(cc32)C(=O)NS1(=O)=O` [Example 67, (1S,3′R,6′R,7′S,11′S,12′R)-6-chloro-7′-(cis-5-(3-(dimethylamino)-1-azetidinyl)-1,3-dioxan-2-yl)-11′,12′-dimethyl-3,4-dihydro-2H,15′H-spiro[naphthalene-1,22′-[20]oxa[13]thia[1,14]diazatetracyclo [14.7.2.0~3,6~.0~19,24~]pentacosa[16,18,24]trien]-15′-one 13′,13′-dioxide], the half-inhibitory concentration (IC50) came to 220 nM.
The value for `C[C@@H]1CS(=O)(=O)NC(=O)c2ccc3c(c2)N(C[C@@H]2CC[C@H]2[C@@H]([C@H]2OC[C@@H](N(C)C)CO2)CC[C@@H]1C)C[C@@]1(CCCc2cc(Cl)ccc21)CO3` [Example 85, (1S,3′R,6′R,7′S,10′S,11′S)-6-chloro-7′-(cis-5-(dimethylamino)-1,3-dioxan-2-yl)-10′,11′-dimethyl-3,4-dihydro-2H,15′H-spiro[naphthalene-1,22′-[20]oxa[13]thia[1,14]diazatetracyclo [14.7.2.0~3,6~.0~19,24~]pentacosa[16,18,24]trien]-15′-one 13′,13′-dioxide] was 1090 nM; that for `C[C@@H]1[C@@H](C)CCC[C@H]([C@H]2OC[C@@H](N3CC(F)(F)C3)CO2)[C@@H]2CC[C@H]2CN2C[C@@]3(CCCc4cc(Cl)ccc43)COc3ccc(cc32)C(=O)NS1(=O)=O` [Example 32, (1S,3′R,6′R,7′S,11′S,12′R)-6-chloro-7′-(cis-5-(3,3-difluoro-1-azetidinyl)-1,3-dioxan-2-yl)-11′,12′-dimethyl-3,4-dihydro-2H,15′H-spiro[naphthalene-1,22′-[20]oxa[13]thia[1,14]diazatetracyclo [14.7.2.0~3,6~.0~19,24~]pentacosa[16,18,24]trien]-15′-one 13′,13′-dioxide] was 1940 nM; that for `C[C@@H]1[C@@H](C)CCC[C@H]([C@H]2OC[C@@H](N3CCC3)CO2)[C@@H]2CC[C@H]2CN2C[C@@]3(CCCc4cc(Cl)ccc43)COc3ccc(cc32)C(=O)NS1(=O)=O` [Example 21, (1S,3′R,6′R,7′S,11′S,12′R)-7′-(cis-5-(1-azetidinyl)-1,3-dioxan-2-yl)-6-chloro-11′,12′-dimethyl-3,4-dihydro-2H,15′H-spiro[naphthalene-1,22′-[20]oxa[13]thia[1,14]diazatetracyclo [14.7.2.0~3,6~.0~19,24~]pentacosa[16,18,24]trien]-15′-one 13′,13′-dioxide] was 521 nM.
To `C[C@@H]1[C@@H](C)CCC[C@H]([C@H]2OC[C@@H](N3CC(N(C)C)C3)CO2)[C@@H]2CC[C@H]2CN2C[C@@]3(CCCc4cc(Cl)ccc43)COc3ccc(cc32)C(=O)NS1(=O)=O` [Example 68, (1S,3′R,6′R,7′S,11′S,12′R)-6-chloro-7′-(cis-5-(3-(dimethylamino)-1-azetidinyl)-1,3-dioxan-2-yl)-11′,12′-dimethyl-3,4-dihydro-2H,15′H-spiro[naphthalene-1,22′-[20]oxa[13]thia[1,14]diazatetracyclo [14.7.2.0~3,6~.0~19,24~]pentacosa[16,18,24]trien]-15′-one 13′,13′-dioxide] belongs 517 nM.
The value for `C[C@@H]1[C@@H](C)CCC[C@H]([C@H]2OC[C@@H](N(C)C)CO2)[C@@H]2CC[C@H]2CN2C[C@@]3(CCCc4cc(Cl)ccc43)COc3ccc(nc32)C(=O)NS1(=O)=O` (stereo in doubt) [Example 94] was 257 nM; that for `COC1CN([C@H]2CO[C@@H]([C@H]3CCC[C@H](C)[C@@H](C)S(=O)(=O)NC(=O)c4ccc5c(c4)N(C[C@@H]4CC[C@H]43)C[C@@]3(CCCc4cc(Cl)ccc43)CO5)OC2)C1` [Example 54, (1S,3′R,6′R,7′S,11′S,12′R)-6-chloro-7′-(cis-5-(3-methoxy-1-azetidinyl)-1,3-dioxan-2-yl)-11′,12′-dimethyl-3,4-dihydro-2H,15′H-spiro[naphthalene-1,22′-[20]oxa[13]thia[1,14]diazatetracyclo [14.7.2.0~3,6~.0~19,24~]pentacosa[16,18,24]trien]-15′-one 13′,13′-dioxide] was 547 nM; that for `C[C@@H]1[C@@H](C)CCC[C@H]([C@H]2OC[C@@H](N(C)C)CO2)[C@@H]2CC[C@H]2CN2C[C@@]3(CCCc4cc(Cl)ccc43)COc3ccc(nc32)C(=O)NS1(=O)=O` (stereo in doubt) [Example 93, (1S,3′R,6′R,7′S,11′S,12′R)-6-chloro-7′-(cis-5-(dimethylamino)-1,3-dioxan-2-yl)-11′,12′-dimethyl-3,4-dihydro-2H,15′H-spiro[naphthalene-1,22′-[20]oxo[13]thia[1,14,25]triazatetracyclo [14.7.2.0~3,6~.0~19,24~]pentacosa[16,18,24]trien]-15′-one 13′,13′-dioxide] was 34 nM.
Turning to `COCC[C@@H]1[C@@H](C)CCC[C@H]([C@H]2OC[C@@H](N(C)C)CO2)[C@@H]2CC[C@H]2CN2C[C@@]3(CCCc4cc(Cl)ccc43)COc3ccc(cc32)C(=O)NS1(=O)=O` [Example 82, (1S,3′R,6′R,7′S,11′S,12′R)-6-chloro-7′-(cis-5-(dimethylamino)-1,3-dioxan-2-yl)-12′-(2-methoxyethyl)-11′-methyl-3,4-dihydro-2H,15′H-spiro[naphthalene-1,22′-[20]oxa[13]thia[1,14]diazatetracyclo [14.7.2.0~3,6~.0~19,24~]pentacosa[16,18,24]trien]-15′-one 13′,13′-dioxide], the half-maximal inhibitory concentration (IC50) worked out at 33 nM.
Turning to `CCN(CC)[C@H]1CO[C@@H]([C@H]2CCC[C@H](C)[C@@H](C)S(=O)(=O)NC(=O)c3ccc4c(c3)N(C[C@@H]3CC[C@H]32)C[C@@]2(CCCc3cc(Cl)ccc32)CO4)OC1` [Example 58, (1S,3′R,6′R,7′S,11′S,12′R)-6-chloro-7′-(cis-5-(diethylamino)-1,3-dioxan-2-yl)-11′,12′-dimethyl-3,4-dihydro-2H,15′H-spiro[naphthalene-1,22′-[20]oxa[13]thia[1,14]diazatetracyclo [14.7.2.0~3,6~.0~19,24~]pentacosa[16,18,24]trien]-15′-one 13′,13′-dioxide], the concentration for half-maximal inhibition (IC50) is 512 nM.
With `COCC[C@@H]1[C@@H](C)CCC[C@H]([C@H]2OC[C@@H](N(C)C)CO2)[C@@H]2CC[C@H]2CN2C[C@@]3(CCCc4cc(Cl)ccc43)COc3ccc(cc32)C(=O)NS1(=O)=O` (stereo in doubt) [Example 83], the half-maximal inhibitory concentration (IC50) is 540 nM.
